Article PMC8102414 (Heliyon, 2021)
Values after ≈ are worked out from the molar mass of the structure shown.

What was measured:
[1] = test system: advanced glycation end products (AGEs); assay: Glycation inhibition assay; assay type: biochemical; conditions: Inactive at >100 μM
3T3-L1 adipocyte cells = assay: Glucose consumption assay; assay type: cell-based; conditions: induction of glucose consumption, 3T3-L1 adipocyte cells; Inactive at >100 μM
RAW 264.7 cells = assay: Nitric oxide production inhibition assay; assay type: cell-based; conditions: for NO Inhibition (IC50, μM): LPS-stimulated NO production in RAW 264.7 cells, Inactive at >100 μM
[2] = test system: Salmonella typhi DMST 22842; assay: microbe, parasite or virus in culture; assay type: cell-based; conditions: for MIC (μg/mL) ST: Gram-negative, Salmonella typhi (DMST 22842), Inactive at >128 μg/mL; for MIC: Salmonella enterica, TYPHI, read-out: MIC (μg/mL) ST
[3] = test system: Enterococcus faecalis ATCC 29212; assay: Antimicrobial MIC, 2-fold serial dilution; conditions: for MIC (μg/mL) EF: Gram-positive, Enterococcus faecalis (ATCC 29212), Inactive at >128 μg/mL; for MIC: Enterococcus faecalis, ATCC29212, read-out: MIC (μg/mL) EF
[4] = test system: Micrococcus luteus DMST 15503; assay: Antimicrobial MIC, 2-fold serial dilution; conditions: for MIC (μg/mL) MT: Gram-positive, Micrococcus luteus (DMST 15503), Inactive at >128 μg/mL
[5] = test system: methicillin resistant Staphylococcus aureus NPRC 001R; assay: Antimicrobial MIC, 2-fold serial dilution; conditions: Gram-positive; Methicillin Resistant Staphylococcus aureus (NPRC 001R); Inactive at >128 μg/mL
[6] = test system: Staphylococcus aureus ATCC 25923; assay: Antimicrobial MIC, 2-fold serial dilution; conditions: for MIC (μg/mL) SA: Gram-positive, Staphylococcus aureus (ATCC 25923), Inactive at >128 μg/mL; for MIC: Staphylococcus aureus, ATCC25923, read-out: MIC (μg/mL) SA
[7] = test system: Streptococcus pyogenes ATCC, 19615; assay: Antimicrobial MIC, 2-fold serial dilution; conditions: Gram-positive; Streptococcus pyogenes (ATCC, 19615); Inactive at >128 μg/mL
[8] = test system: Shigella flexneri DMST 4423; assay: Antimicrobial MIC, 2-fold serial dilution; conditions: for MIC (μg/mL) SF: Gram-negative, Shigella flexneri (DMST 4423), Inactive at >128 μg/mL; for MIC: Shigella flexneri, DMST4423, read-out: MIC (μg/mL) SF
[9] = test system: Pseudomonas aeruginosa ATCC 10145; assay: Antimicrobial MIC, 2-fold serial dilution; conditions: Pseudomonas aeruginosa, ATCC10145, read-out: MIC (μg/mL) PA
[10] = test system: Salmonella typhimurium DMST 562; assay: Antimicrobial MIC, 2-fold serial dilution; conditions: for MIC (μg/mL) STR: Gram-negative, Salmonella typhimurium (DMST 562), Inactive at >128 μg/mL
[11] = test system: Escherichia coli TISTR 780; assay: Antimicrobial MIC, 2-fold serial dilution; conditions: for MIC: Escherichia coli, TISTR780, read-out: MIC (μg/mL) EC; for MIC (μg/mL) EC: Gram-negative, Escherichia coli (TISTR 780), Inactive at >128 μg/mL
[12] = test system: Candida albicans ATCC 10231; assay: Antimicrobial MIC, 2-fold serial dilution; conditions: for MIC (μg/mL) CA: Fungi, Candida albicans (ATCC 10231), Inactive at >128 μg/mL; for MIC: Candida albicans, ATCC10231, read-out: MIC (μg/mL) CA

SMILES	Glycation inhibition (IC50, μM) [1]	Glucose consumption (IC50, μM) (3T3-L1 adipocyte cells)	NO Inhibition (IC50, μM) (RAW 264.7 cells)	MIC (μg/mL) ST [2]	MIC (μg/mL) EF [3]	MIC (μg/mL) MT [4]	MIC (μg/mL) MRSA [5]	MIC (μg/mL) SA [6]	MIC (μg/mL) SP [7]	MIC (μg/mL) SF [8]	MIC [9] [µg/mL]	MIC [11] [µg/mL]	MIC (μg/mL) CA [12]	MIC [2] [µg/mL]	MIC [3] [µg/mL]	MIC [8] [µg/mL]	MIC (μg/mL) STR [10]	MIC [12] [µg/mL]	MIC (μg/mL) EC [11]	MIC [6] [µg/mL]	other results
COc1ccc2c3c(oc2c1CC=C(C)C)-c1ccc(O)cc1OC3 [Compound 3, eryvarin D]	Inactive	Inactive	Inactive	Inactive	Inactive	Inactive	Inactive	Inactive	Inactive	Inactive	128 (≈ 381 µM)	128 (≈ 381 µM)	Inactive	–	–	–	–	–	–	–	MIC ([10]; Salmonella enterica, TYPHIMURIUM, read-out: MIC (μg/mL) STR): 128 µg/mL (≈ 381 µM)
O=c1oc2cc(O)ccc2c2oc3cc(O)ccc3c12 [Compound 6, coumestrol]	Inactive	Inactive	Inactive	–	–	Inactive	–	Inactive	Inactive	–	128 (≈ 477 µM)	128 (≈ 477 µM)	–	128 (≈ 477 µM)	128 (≈ 477 µM)	128 (≈ 477 µM)	Inactive	128 (≈ 477 µM)	–	–	–
CC(C)=CCc1c(O)ccc2c1O[C@H]1c3ccc(O)cc3OC[C@@H]21 [Compound 11, phaseollidin]	Inactive	Inactive	Inactive	–	–	–	–	–	–	Inactive	128 (≈ 395 µM)	–	–	128 (≈ 395 µM)	128 (≈ 395 µM)	–	Inactive	128 (≈ 395 µM)	Inactive	–	MIC ([4]; Micrococcus luteus, DMST15503, read-out: MIC (μg/mL) MT): 128 µg/mL (≈ 395 µM)
O=C1C[C@@H](c2ccccc2)Oc2cc(O)cc(O)c21 [Compound 15, pinocembrin]	–	Inactive	Inactive	Inactive	Inactive	Inactive	Inactive	–	Inactive	–	128 (≈ 499 µM)	128 (≈ 499 µM)	Inactive	–	–	128 (≈ 499 µM)	Inactive	–	–	128 (≈ 499 µM)	IC50 ([1]; read-out: Glycation inhibition (IC50)): 83.1 ± 0.94 µM
O=c1c(O)c(-c2ccc(O)cc2)oc2ccc(O)cc12 [Compound 16, 3,6,4′-trihydroxyflavone]	Inactive	Inactive	–	Inactive	Inactive	Inactive	Inactive	–	Inactive	Inactive	128 (≈ 474 µM)	128 (≈ 474 µM)	Inactive	–	–	–	Inactive	–	–	128 (≈ 474 µM)	IC50 (RAW 264.7 cells; Mus musculus, RAW264.7, read-out: NO Inhibition (IC50, μM)): 96.2 ± 1.61 µM
O=c1c(O)c(-c2ccccc2)oc2ccc(O)cc12 [Compound 17, 3,6-dihydroxyflavone]	Inactive	Inactive	Inactive	Inactive	Inactive	Inactive	Inactive	–	Inactive	Inactive	128 (≈ 503 µM)	–	Inactive	–	–	–	Inactive	–	Inactive	128 (≈ 503 µM)	–
